Test results reported in publication PMC11055068, “Humoral Immune Response to SARS-CoV-2 Spike Protein Receptor-Binding Motif Linear Epitopes” (Vaccines, 2024).

Assays:
[1] = Protein thermal shift assay; type: physicochemical
Procedure: Protein thermal shift assays were performed using a QuantStudio 3 PCR System (Applied Biosystems, Foster City, CA, USA). The experiments used a 0.2 mL MicroAmp® optical eight-strip manufactured by Applied Biosystems. Every step was executed on ice. In each measurement, duplicates or quadruplicates of the samples were analyzed. Each measurement included a negative control free of protein and a positive control obtained with Lysozyme (10 µg) and the peptide S8WT (5 µg). A carbonate–bicarbonate buffer (50 mM, pH 9.6) and a protein thermal shift dye (Applied Biosystems, Foster City, CA, USA) were used in a 4× dye concentration. The plate was sealed with MicroAmp™ Optical Adhesive Film (Applied Biosystems, Foster City, CA, USA) and incubated on ice for 15 min after all components were pipetted into the wells. An Applied Biosystems QuantStudio™ 3 Real-Time PCR System was used, utilizing a gradient rate of 0.05 °C/s and a melt curve filter setting of x2-m2 from 25 °C to 99 °C with continuous data collection. Analyses of the melting curves were conducted with the TSAR application in R version 4.2.1.

antibodies in sera = conditions: ref A novel precision-serology assay for SARS-CoV-2 infection based on linear B-cell epitopes of Spike protein; cited from earlier work
[2] = test system: IgG in serum of vaccinated individuals; test: In-house peptide ELISA, IgG; type: binding, human; conditions: serum 1:25; for IgG seroreactivity (positive samples): reactivity index > 1.1
Procedure: A panel of 31 serum samples were obtained from individuals who received a single dose of the Oxford/AstraZeneca vaccine, and 15 serum samples were collected from individuals who received four doses. Serum from healthy donors, collected before the pandemic, was provided by HEMORIO, a centralized network of blood donor facilities in Rio de Janeiro, Brazil. Serum samples were supplied without identifying information to ensure patient privacy.
An in-house ELISA was conducted using Immunolon 4 HB plates (Immunochemistry Technologies, Bloomington, MN, USA). The coating process involved overnight incubation at 4 °C, wherein each well received 500 ng of peptides in a coating buffer (50 mM carbonate–bicarbonate buffer, pH 9.6). After washing with PBS-T (phosphate-buffered saline plus 0.05% Tween 20), the plates were incubated for 1 h at 37 °C with 1% BSA (200 µL) in PBS-T to block free binding sites. Following the dilution of patient serum in PBS-T with 1% BSA (1:25), 100 µL of the diluted serum was applied to immunosorbent plates, which were then incubated at 37 °C for 1 h. Following a series of PBS-T washes, plates were treated with 100 µL of mouse anti-human IgG3 (1:1000) followed by association with antimouse peroxidase (1:15.000) or goat anti-human immunoglobulin classes IgG (1:10.000), IgM (1:10.000), and IgA (1:5000) or subclasses IgG1 (1:1000) and IgG2 (1:1000) associated with the HRP molecule, respectively (Sigma-Aldrich, St Louis, MO, USA). Between each step, the plates were incubated at 37 °C for 1 h. Following the addition of 3,3′,5,5′-tetramethylbenzidine (1-Step™ Ultra TMB-ELISA, Science Biotech Ltd., Lages, SC, Brazil) for 15 min, 0.5 M sulfuric acid was utilized to terminate the reaction. The plate was read 30 min after the Stop Solution was added. The values of empty wells that contained only peptides were deducted from the optical density of the sample.
Prism software (GraphPad version 6, San Diego, CA, USA) was utilized to analyze the data. Statistical differences were identified using the Kruskal–Wallis test and Dunn’s multiple comparisons tests. Differences were considered significant when the p-value was less than 0.05. The reactivity index (RI) was calculated by dividing the absorbance of a given protein by the threshold established by a receiver operation curve (ROC) analysis. A result greater than 1.10 was considered positive, while a result less than 0.90 was considered negative; these are represented by dot lines. Samples with a relative index (RI) value of 1.0 ± 10% were classified as gray-zone samples and deemed inconclusive.

[3] = test system: Purified antibodies specific to the RBM (anti-RBM antibodies from vaccinated serum); type: binding, human
[4] = first dose Oxford/AstraZeneca, n = 30, 500 ng peptide per well
[5] = heterologous booster doses, n = 7

Work on Lysozyme yielded a Tm ([1]; Lysozyme 10 µg control, carbonate–bicarbonate buffer 50 mM, pH 9.6, 25 to 99 °C, 0.05 °C/s, protein thermal shift dye) of 72.7 °C, a Tm ([1]; replicate 1 (Lysozyme_1), 10 µg, carbonate–bicarbonate buffer pH 9.6) of 71.7 °C and a Tm ([1]; replicate 2 (Lysozyme_2), 10 µg, carbonate–bicarbonate buffer pH 9.6) of 73.7 °C.

In the case of NGVEGFNCYFP, the “serological reactivity vs other S1 and S2 regions” value (antibodies in sera) is given as “less serologically reactive than other S1 and S2 regions”.

In the case of YFPLQSYGFQPTNGV [S3WT], the “IgG positive samples (reactivity index > 1.1)” value [2, 4] is reported as “only two positive samples” and the “IgG positive samples (reactivity index > 1.1)” value [2, 5] is reported as “one for heterologous booster doses”.

For GSTPCNGVEGFNCYF [S2WT], the “binding affinity of RBM antibodies (in words)” value [3] was “stronger”, the Kd ([3]; read-out: Kd (dissociation constant)) was 0.035 µM and the “IgG positive samples (reactivity index > 1.1)” value [2, 4] was 4/30. For the same substance, the “IgG seroreactivity (positive samples)” value ([2]; first dose Oxford/AstraZeneca, n = 30) was 13.3%, the “IgG positive samples (reactivity index > 1.1)” value [2, 5] was 1/7 and the “IgG seroreactivity (positive samples)” value [2, 5] was 14.3%.
